The results in this text go back to ChEMBL document CHEMBL1155501, “Studies on two types of PTP1B inhibitors for the treatment of type 2 diabetes: Hologram QSAR for OBA and BBB analogues” (Bioorg Med Chem Lett, 2010).

The target of this assay is T1, Tyrosine-protein phosphatase non-receptor type 1 (Homo sapiens, UniProt P18031).
T1 sequence (P18031 whole entry): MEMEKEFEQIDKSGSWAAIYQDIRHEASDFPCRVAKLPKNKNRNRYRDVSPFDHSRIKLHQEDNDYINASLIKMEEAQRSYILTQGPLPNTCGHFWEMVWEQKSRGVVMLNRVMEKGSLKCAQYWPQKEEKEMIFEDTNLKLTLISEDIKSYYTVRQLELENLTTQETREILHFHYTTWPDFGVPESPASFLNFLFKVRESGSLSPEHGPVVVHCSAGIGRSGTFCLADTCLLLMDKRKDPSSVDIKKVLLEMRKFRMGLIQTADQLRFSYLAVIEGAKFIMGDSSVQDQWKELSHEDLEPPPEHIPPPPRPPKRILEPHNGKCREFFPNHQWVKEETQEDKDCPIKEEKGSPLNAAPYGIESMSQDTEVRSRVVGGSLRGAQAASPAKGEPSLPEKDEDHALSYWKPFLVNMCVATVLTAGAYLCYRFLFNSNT
In words: Binding affinity to human recombinant PTP1B.

pIC50, pKi: −log10 of the molar value.

Usually pIC50 stands for the IC50 on a negative log10 scale, so that one unit is a factor of ten. Take `O=C(O)[C@H](Oc1ccc(-c2ccc(-c3c(Cc4ccc(O)cc4O)sc4ccccc34)cc2)cc1)c1ccccc1`: the pIC50 was 6.92.

As for `O=C(O)/C=C/C(=O)Nc1cc(-c2ccc(-c3c(Cc4ccccc4)oc4ccccc34)cc2)ccc1O`, the pIC50 is 6.34.

Turning to `CCCCc1sc2ccccc2c1-c1ccc(-c2ccc(OCC(=O)O)cc2)cc1`, the pIC50 is 5.66.

Broadly, the pKi is the Ki on a negative log10 scale, so that one unit is a factor of ten. Regarding `Cc1cccc(C(=O)O)c1NC(=O)C(=O)O`, the pKi is 2.90.

With `Nc1cccc(-c2cc(NC(=O)C(=O)O)c(C(=O)O)s2)c1`, the pKi is 5.22.

For the compound `Oc1c(Br)cc(-c2ccc(-c3c(Cc4ccccc4)sc4ccccc34)cc2)cc1Br`, the pIC50 is 6.35.

As for `CCCCc1sc2ccccc2c1-c1ccc(-c2ccc(O)cc2)cc1`, the pIC50 is 6.16.

Regarding `O=C(O)C(=O)Nc1sc2c(c1C(=O)O)CCS(=O)(=O)C2`, the pKi was 5.22.
